# Measured values reported in patent US10150793B2, “Antagonists of CB1 receptor” (INSERM (Institut National de la Santé et de la Recherche …, priority 2011, dated 2018).
# How the values were obtained:
# [1] = molecular target: T1, CB1 receptor (Mus musculus, UniProt P47746); assay: THC inhibition of fEPSP in nucleus accumbens slices; assay type: cell-based, mice; set-up: from tissue; host or cells: acute brain slices, nucleus accumbens; settings: slices pre-incubated with pregnenolone 100 nM
# Description: Animals were deeply anesthetized with Isoflourane and transcardially perfused with a sucrose-based physiological solution at 4° C. (in mM: 23 NaHCO3, 70 Choline Cl, 75 Sucrose, 25 Glucose, 2.5 KCl, 1.25 NaH2PO4, 7 MgCl2 and 0.5 CaCl2). The brain was removed and sliced (250-300 μm) in the coronal plane using a vibratome (Campden Instruments, Loughborough, UK). During the slicing process, the brain was maintained in the sucrose-based solution. Immediately after cutting, slices were stored at 32° C. for 40 minutes in a low-calcium artificial cerebrospinal fluid (low-Ca^2+ ACSF) that contained (in mM): 23 NaHCO3, 120 NaCl, 11 Glucose, 2.5 KCl, 1.2 NaH2PO4, 2.4 MgCl2, 1.2 CaCl2. Slices were then stored in low-Ca^2+ ACSF at room temperature until recording.
# For fEPSPs, extracellular glass recording and stimulating electrodes were filled with ACSF. Synaptic potentials were evoked by means of two electric stimuli (0.1-0.25 mA, 200 μsec duration) delivered at 20 Hz every 10 seconds. Stimulating electrode was placed at a distance>150 μm in the dorsomedial direction from the recoding electrode.
# In order to test the effect of pregnenolone on a wider range of THC concentrations, we recorded fEPSP in NAc slices. Due to the possibility to achieved stable fEPSP measurements for several hours, this technique is ideally suited to perform dose-response curves and has previously been used to address CB1 receptor function (Robbe et al., 2001; Mato et al., 2004). Thus, AMPAR-mediated evoked fEPSP were recorded by electrically stimulating local axons.
# [2] = molecular target: T1, CB1 receptor; assay: Object recognition task, THC-induced amnesia; assay type: in vivo, mice; set-up: tissue Charles River Laboratories (France) (animals); host or cells: living mice, whole animal
# Description: Object recognition was measured in a two arms L-maze (size of each arm 30 cm length×4.5 cm width) in dim light condition (50-60 lux). Animals were individually tested for three consecutive days for 9 min-session each day, corresponding to habituation, training and test sessions. On day 1 (habituation session), mice were let explore the L maze with no object. On the second day (training session), two identical objects were presented at the end of the each arm of the maze. Although no preferences for arm of object appeared (data not shown) object and arms were randomized for each mouse/condition. On the 3rd day (test session), one of the familiar objects was replaced with a novel object and the total time spent exploring each of the two objects (novel and familiar) was computed. The time spent in each arm and the time spent exploring an object (familiar or novel) were recorded. Object exploration was defined as the orientation of the nose to the object at a distance of less than 2 cm. During the test session, a discrimination index was calculated as the difference between the times spent exploring either the novel or familiar object divided by the total time exploring the two objects. […]
# In this example the inventors further analyzed the ability of pregnenolone to inhibit the effects of CB1 activation. […]
# [3] = molecular target: T1, CB1 receptor; assay: Intravenous self-administration of the CB1 agonist WIN 55,212-2; assay type: in vivo, CD1 mice; set-up: tissue Charles River Laboratories (France) (animals); host or cells: living mice, whole animal
# Description: The intravenous self-administration experiments where the animals learned to self-infuse WIN 55, 212-2 (WIN) were conducted in mouse operant chambers (Model ENV-307A-CT, Medical Associates, Georgia, Vt., USA) using procedures previously described (Mendizabal V, et al., Neuropsychopharmacology. 2006, 31:1957-66).
# In order to analyse the effects of pregnenolone administration on the positive reinforcing effect of CB1 activation that are related to the ability of THC to induce addiction, the inventors used the intravenous self-administration model performed in accordance to protocols previously described (Soria et al., 2006; Mendizabal et al., 2006). Intravenous self-administration is considered the best behavioural model of addiction. In this model animals learn to produce an operant response, in our case pocking the nose in a hole, in order to obtain an intravenous infusion of the drug. […] In this schedule animals are required to produce an increasing number of responses (ratio) to obtain one drug infusion, the break-point being the last ratio completed and is considered a reliable measure of the motivation for the drug. On PR session the response requirement to earn an injection escalated according to the following series: 1-2-3-5-12-18-27-40-60-90-135-200-300-450-675-1000.
# T1 sequence (P47746 whole entry, the tested form may be a part): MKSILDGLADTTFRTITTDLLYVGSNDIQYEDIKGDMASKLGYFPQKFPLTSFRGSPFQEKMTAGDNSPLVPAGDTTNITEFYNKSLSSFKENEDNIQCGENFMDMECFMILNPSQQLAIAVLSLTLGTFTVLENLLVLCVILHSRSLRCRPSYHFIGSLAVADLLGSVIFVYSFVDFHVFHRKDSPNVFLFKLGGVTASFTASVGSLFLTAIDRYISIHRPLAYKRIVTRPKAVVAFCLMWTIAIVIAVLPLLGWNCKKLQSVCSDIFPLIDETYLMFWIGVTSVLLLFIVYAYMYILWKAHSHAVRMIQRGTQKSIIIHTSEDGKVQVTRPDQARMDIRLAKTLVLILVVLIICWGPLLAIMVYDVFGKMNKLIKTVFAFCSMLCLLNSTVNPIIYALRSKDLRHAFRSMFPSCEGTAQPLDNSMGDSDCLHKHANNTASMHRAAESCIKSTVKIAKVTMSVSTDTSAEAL
smiles,measurement,setting,value
"CC(=O)[C@H]1CC[C@H]2[C@@H]3CC=C4C[C@@H](O)CC[C@]4(C)[C@H]3CC[C@]12C [Pregnenolone, 5-Pregnen-3β-ol-20-one]",inhibition of fEPSP by THC,[1]; THC 10 μM,11.1±3.2%
same,inhibition of fEPSP by THC,[1]; THC 20 μM,22.7±2.7%
same,inhibition of fEPSP by THC,[1]; THC 40 μM,34.6±3.1%
same,effect on memory retention in the absence of THC,[2]; pregnenolone 6 mg/kg,did not induce any change in memory retention
same,effect on amnesic effect of THC,"[2]; pregnenolone 6 mg/kg immediately after training, THC 10 mg/kg",strongly blunted the amnesic effect
same,"effect on motivation (break-point, progressive ratio schedule)",[3]; pregnenolone 2 or 4 mg/kg,"decreased the motivation to self-administer WIN55,212"
same,"effect on self-administration of WIN55,212","[3]; pregnenolone 2 or 4 mg/kg before the session, WIN 12.5 μg/kg per injection","profoundly reduced the self-administration of WIN55,212"
